The values below come from US11491224B2, “Bladder cancer photodynamic therapeutic agents with off-on magnetic resonance imaging enhancement” (Hong Kong Baptist University, priority 2018, dated 2022).

Read-outs that look alike come from different tables or passages of the source.

For data set [1] the following is noted: in PBS buffer, reference value; cited from earlier work.
The subject of data set [2] is T24 bladder cancer xenografts. The conditions noted are these: 100 μmol/kg (0.1 mmol/kg gadolinium), tail vein injection.
Protocol: MRI signal enhancement was assessed by performing in vivo MRI measurements in three BALB/c nude mice bearing T24 bladder cancer xenografts. Three tumor models were developed by subcutaneous injection of T24 bladder cancer cells. […] MR images were acquired before and after tail vein injection of 200 μl of each sample at various time points.
MR images were acquired before and after 200 μL tail vein injection of each subject at various times.
Data set [3] in a line: T1 and T2 relaxivity measurements. The format is physicochemical. Here is the method: t1 relaxivity of the proposed MR-available PDT agent—NLPor-Gd-L1Rn (n=1 to 3) was measured. […] Without wishing to be bound by theory, this difference in relaxivity could be due to the different coordinative numbers of them: for NLPor-Gd-L1Rn, (n=1 to 3) the coordinative protection for the central Gd^3+ ion is better than that of Gd-DOTA, so the Gd^3+ ion in NLPor-Gd-L1Rn (n=1 to 3) has less chance to exchange with water protons compared to Gd-DOTA. The responsive t1 of NLPor-Gd-L1Rn (n=1-3) have been evaluated with the addition of different concentrations of αvβ3 integrin. […] (FIG. 6). When the αvβ3 integrin (targeting) binding might readily interact with two molecules and affect t1 relaxivity from 2nd or outer coordination spheres. The t1 relaxivity of NLPor-Gd-L1R3 is enhanced from 0.2847 mM^−1s^−1 to 3.225 mM^−1s^−1 with the addition of αvβ3 integrin.
t1 relaxivity of the proposed MR-available PDT agent—M-NLPor-Cyc-L2An (n=1 or 2) was measured. […]
The absorption and emission spectra of Zn-NLPorB2-Cyc-Gd-L2A2 and its precursor without Gd, Zn-NLPorB2-Cyc-L2A2 were measured in aqueous solution (FIGS. 54b and 54c). […] The singlet oxygen quantum yields (ΦΔ) of Zn-NLPorB2-Cyc-Gd-L2A2 and Zn-NLPorB2-Cyc-L2A2 were measured in CHCl3 and calculated by comparing to a reference compound tetraphenylporphyrin, H2TPP, (ΦΔ=0.55 in CHCl3). […]

For the molecule `O=C1OC2(c3cc(I)c(O)c(I)c3Oc3c2cc(I)c(O)c3I)c2c(Cl)c(Cl)c(Cl)c(Cl)c21` [RB, Rose Bengal], the “singlet oxygen quantum yield of reference (ΦRB)” value in data set [1] is 0.75.

Consider `O=C([O-])CN1CCN(CC(=O)[O-])CCN(CC(=O)O)CCN(CC(=O)[O-])CC1.[Gd+3]` [Gd-DOTA, reference compound], for which the “post-injection MRI signal enhancement” value in data set [2] was “weak post-injection signal enhancement”; in data set [2] (listed as GdDOTA), “Weak post injection signal enhancement”. In data set [3] (1.4T in water with 3% DMSO, 37° C.), this molecule returned a T1 relaxivity of 2.92 mM⁻¹ s⁻¹. Also, the “T1 relaxivity (r1)” value in data set [3] (1.5 T in water (3% DMSO)) was determined as 2.92 mM⁻¹ s⁻¹.
